# Calls of active or inactive are those of the source.
# Columns and labels:
# [1] = target: Fructose-bisphosphate aldolase (Mycobacterium tuberculosis, UniProt P9WQA3); test: Fluorescence-based biochemical high throughput dose response assay for inhibitors of the fructose-bisphosphate aldolase (FBA) of M. tuberculosis.; assay type: functional
# [2] = target: Beta-galactosidase (Escherichia coli, UniProt Q8VNN2); test: Dose response counterscreen for EBI2 assay utilizing the enzyme, b-galactosidase.; assay type: functional
# [3] = target: Voltage-gated inwardly rectifying potassium channel KCNH2 (Homo sapiens, UniProt Q12809); conditions: Potency;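 further: confirmatory quantitative high-throughput screen measuring inhibition of hERG channel activity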
# [4] = target: T1, Aryl hydrocarbon receptor (Homo sapiens, UniProt P35869); conditions: Potency;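 further: confirmatory quantitative high-throughput screen measuring activation of the AhR signaling pathway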
# T1 sequence (P35869 whole entry): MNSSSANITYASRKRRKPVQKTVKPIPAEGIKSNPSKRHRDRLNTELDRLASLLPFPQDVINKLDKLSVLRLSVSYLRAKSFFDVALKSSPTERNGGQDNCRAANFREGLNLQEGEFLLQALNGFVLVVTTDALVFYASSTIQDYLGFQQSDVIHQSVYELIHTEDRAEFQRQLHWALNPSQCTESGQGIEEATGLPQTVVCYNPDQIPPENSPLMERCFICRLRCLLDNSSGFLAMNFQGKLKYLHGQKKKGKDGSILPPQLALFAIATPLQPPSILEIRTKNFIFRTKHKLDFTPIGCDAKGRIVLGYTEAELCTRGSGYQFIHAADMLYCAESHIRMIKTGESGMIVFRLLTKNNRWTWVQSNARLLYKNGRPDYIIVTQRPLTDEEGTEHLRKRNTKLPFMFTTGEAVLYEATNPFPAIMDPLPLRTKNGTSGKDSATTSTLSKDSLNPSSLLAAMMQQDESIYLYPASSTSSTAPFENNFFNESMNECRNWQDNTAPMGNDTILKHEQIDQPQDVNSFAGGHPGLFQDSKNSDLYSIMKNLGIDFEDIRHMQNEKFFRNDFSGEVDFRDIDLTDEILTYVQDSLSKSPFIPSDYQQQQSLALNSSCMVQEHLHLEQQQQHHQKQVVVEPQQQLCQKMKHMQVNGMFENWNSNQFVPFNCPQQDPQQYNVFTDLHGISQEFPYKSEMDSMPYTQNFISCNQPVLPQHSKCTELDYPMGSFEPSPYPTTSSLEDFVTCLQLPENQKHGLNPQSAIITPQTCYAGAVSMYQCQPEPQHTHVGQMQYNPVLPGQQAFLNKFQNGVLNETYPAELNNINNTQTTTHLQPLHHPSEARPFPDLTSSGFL
# [5] = target: Hepatocyte nuclear factor 4-alpha (Homo sapiens, UniProt P41235); assay type: functional, cell-based;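 further: biochemical luminescence-based dose-response counterscreen measuring inhibition of HNF4 dimerization, run alongside a screen for blockers of ABHD5–perilipin-5 interaction; split luciferase complementation of HNF4 fusion proteins in cell lysate measuring dimerization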
# [6] = Luminescence Cell-Based Dose Retest to Confirm Inhibitors of Cancer Stem Cells. [Related pubchem assays (depositor defined):AID2717, AID2721]; assay type: functional; conditions: Homo sapiens
# [7] = test system: CHO; test: CHO cell viability loss, potency – luminescence, cytotoxicity control for TLR9-MyD88 binding inhibitor project, dose response (AID 588339); assay type: functional, cell-based, hamster; conditions: Cricetulus griseus;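 further: CHO cells stably coexpressing TLR9 and MyD88 fusions from primary screen; compound exposure lasted 48 hours before viability readout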
# [8] = target: Beta Lactamase (Pseudomonas aeruginosa, UniProt Q932Y6); test: BLA reporter interference, concentration series – BLA reporter cells, FRET fluorescence, artefact control for TLR9-MyD88 binding inhibitor project, dose response (AID 588341); assay type: cell-based;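 further: cell based assay in CHO-K1 cells stably expressing beta-lactamase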
# [9] = viability loss in HEK293T cells – cell-based, cherry-picks, cytotoxicity control for HIV Vif inhibitor project, dose response (AID 652208); assay type: functional
# [10] = target: Photoreceptor-specific nuclear receptor (Homo sapiens, UniProt Q9Y5X4); assay type: functional, cell-based;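 further: CHO-S cells with Gal4-NCOR and VP16-NR2E3 two-hybrid luciferase reporter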
# [11] = target: T2, Sentrin-specific protease 1 (Homo sapiens, UniProt Q9P0U3); test: SENP1 catalytic domain blockers, concentration series – biochemical, kinetic FRET, dose response (AID 651697); assay type: functional; conditions: read-out: IC50_Mean
# T2 sequence (Q9P0U3 whole entry): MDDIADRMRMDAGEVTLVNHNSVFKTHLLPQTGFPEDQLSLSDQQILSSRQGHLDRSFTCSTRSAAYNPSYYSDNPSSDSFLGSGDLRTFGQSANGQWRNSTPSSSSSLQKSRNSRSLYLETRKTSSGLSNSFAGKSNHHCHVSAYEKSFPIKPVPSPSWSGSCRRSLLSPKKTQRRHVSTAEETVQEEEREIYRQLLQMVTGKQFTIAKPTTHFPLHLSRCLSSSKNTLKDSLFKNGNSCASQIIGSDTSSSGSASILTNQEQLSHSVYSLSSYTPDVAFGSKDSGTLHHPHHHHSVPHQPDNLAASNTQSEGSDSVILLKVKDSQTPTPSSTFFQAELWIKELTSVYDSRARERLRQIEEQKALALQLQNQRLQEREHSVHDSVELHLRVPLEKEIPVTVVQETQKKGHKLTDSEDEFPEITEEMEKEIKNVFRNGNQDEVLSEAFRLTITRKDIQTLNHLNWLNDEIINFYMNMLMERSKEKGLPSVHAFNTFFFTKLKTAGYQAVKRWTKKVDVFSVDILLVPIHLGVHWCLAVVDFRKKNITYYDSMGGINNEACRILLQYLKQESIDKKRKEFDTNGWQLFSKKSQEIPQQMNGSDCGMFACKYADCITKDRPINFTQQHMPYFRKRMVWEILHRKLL
# [12] = target: T2, Sentrin-specific protease 1; test: Dose response confirmation of small molecule inhibitors of the catalytic domain of the SUMO protease, SENP1 in a FRET assay.; assay type: functional; conditions: read-out: IC50_Mean
# Sequence of Hepatocyte nuclear factor 4-alpha (P41235 whole entry, the tested form may be a part): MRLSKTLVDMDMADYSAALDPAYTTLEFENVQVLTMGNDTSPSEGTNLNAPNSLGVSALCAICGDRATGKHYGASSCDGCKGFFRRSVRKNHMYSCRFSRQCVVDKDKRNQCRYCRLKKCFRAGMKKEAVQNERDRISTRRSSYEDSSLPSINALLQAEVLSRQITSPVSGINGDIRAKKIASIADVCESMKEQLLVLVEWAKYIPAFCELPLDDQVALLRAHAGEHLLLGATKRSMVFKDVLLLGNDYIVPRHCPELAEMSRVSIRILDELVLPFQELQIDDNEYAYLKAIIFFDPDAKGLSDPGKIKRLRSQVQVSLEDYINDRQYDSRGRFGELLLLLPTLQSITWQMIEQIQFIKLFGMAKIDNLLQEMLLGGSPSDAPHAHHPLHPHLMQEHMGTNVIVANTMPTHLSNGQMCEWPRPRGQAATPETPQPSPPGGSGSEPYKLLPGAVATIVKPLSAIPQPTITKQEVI
# Sequence of Photoreceptor-specific nuclear receptor (Q9Y5X4 whole entry, the tested form may be a part): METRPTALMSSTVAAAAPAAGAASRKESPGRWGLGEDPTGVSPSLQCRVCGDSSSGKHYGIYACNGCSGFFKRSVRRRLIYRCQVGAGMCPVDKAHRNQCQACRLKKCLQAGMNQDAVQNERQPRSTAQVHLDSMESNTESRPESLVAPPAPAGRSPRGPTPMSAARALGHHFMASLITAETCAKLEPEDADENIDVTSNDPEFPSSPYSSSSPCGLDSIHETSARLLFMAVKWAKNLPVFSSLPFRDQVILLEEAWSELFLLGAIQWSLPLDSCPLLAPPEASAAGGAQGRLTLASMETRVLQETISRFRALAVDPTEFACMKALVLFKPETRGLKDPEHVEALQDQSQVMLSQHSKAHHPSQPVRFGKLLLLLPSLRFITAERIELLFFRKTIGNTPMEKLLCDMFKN
# Sequence of Beta-galactosidase (Q8VNN2 whole entry): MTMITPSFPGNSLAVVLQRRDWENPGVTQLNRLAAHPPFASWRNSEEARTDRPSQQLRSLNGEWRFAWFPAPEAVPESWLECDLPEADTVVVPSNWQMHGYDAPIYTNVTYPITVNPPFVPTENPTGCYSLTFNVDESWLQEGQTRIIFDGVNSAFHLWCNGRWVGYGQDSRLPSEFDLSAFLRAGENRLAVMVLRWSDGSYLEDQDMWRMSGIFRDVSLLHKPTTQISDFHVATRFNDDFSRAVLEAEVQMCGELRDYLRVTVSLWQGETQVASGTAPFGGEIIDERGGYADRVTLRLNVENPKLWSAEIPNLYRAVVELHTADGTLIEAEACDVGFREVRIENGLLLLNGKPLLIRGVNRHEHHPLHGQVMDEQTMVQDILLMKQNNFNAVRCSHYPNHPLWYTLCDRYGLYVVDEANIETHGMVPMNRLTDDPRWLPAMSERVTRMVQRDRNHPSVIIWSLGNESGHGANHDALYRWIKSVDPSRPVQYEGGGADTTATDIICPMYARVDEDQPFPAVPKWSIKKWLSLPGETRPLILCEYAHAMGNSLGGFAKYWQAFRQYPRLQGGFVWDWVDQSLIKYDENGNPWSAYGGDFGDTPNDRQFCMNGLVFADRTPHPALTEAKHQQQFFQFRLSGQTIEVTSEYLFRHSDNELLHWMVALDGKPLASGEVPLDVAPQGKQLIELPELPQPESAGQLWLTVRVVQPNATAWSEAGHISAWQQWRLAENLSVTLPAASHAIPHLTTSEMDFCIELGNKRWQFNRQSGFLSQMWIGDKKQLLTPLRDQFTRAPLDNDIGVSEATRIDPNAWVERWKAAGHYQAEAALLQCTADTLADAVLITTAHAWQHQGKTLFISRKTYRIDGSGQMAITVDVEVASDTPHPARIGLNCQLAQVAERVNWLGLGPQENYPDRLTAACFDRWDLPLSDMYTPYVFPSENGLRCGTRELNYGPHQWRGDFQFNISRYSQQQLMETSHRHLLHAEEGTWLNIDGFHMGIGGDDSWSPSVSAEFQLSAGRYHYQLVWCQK
# Sequence of Beta Lactamase (Q932Y6 whole entry): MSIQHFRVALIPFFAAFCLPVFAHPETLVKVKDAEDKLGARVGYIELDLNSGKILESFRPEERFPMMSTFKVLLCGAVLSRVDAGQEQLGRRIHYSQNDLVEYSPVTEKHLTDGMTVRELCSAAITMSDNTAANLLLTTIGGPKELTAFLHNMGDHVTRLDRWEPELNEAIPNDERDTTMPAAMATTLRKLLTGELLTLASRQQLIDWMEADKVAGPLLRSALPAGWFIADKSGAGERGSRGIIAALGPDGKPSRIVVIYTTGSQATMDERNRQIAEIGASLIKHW
# Sequence of Fructose-bisphosphate aldolase (P9WQA3 whole entry): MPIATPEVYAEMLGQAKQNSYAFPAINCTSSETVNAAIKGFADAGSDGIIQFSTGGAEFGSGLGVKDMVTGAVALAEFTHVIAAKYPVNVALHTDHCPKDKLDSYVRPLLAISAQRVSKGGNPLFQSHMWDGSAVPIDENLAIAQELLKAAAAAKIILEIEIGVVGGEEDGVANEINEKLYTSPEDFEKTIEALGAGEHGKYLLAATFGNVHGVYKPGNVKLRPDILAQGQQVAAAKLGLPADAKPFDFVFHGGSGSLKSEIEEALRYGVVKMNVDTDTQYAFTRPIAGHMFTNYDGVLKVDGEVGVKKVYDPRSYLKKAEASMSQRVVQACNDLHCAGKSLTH
# Sequence of Voltage-gated inwardly rectifying potassium channel KCNH2 (Q12809 whole entry): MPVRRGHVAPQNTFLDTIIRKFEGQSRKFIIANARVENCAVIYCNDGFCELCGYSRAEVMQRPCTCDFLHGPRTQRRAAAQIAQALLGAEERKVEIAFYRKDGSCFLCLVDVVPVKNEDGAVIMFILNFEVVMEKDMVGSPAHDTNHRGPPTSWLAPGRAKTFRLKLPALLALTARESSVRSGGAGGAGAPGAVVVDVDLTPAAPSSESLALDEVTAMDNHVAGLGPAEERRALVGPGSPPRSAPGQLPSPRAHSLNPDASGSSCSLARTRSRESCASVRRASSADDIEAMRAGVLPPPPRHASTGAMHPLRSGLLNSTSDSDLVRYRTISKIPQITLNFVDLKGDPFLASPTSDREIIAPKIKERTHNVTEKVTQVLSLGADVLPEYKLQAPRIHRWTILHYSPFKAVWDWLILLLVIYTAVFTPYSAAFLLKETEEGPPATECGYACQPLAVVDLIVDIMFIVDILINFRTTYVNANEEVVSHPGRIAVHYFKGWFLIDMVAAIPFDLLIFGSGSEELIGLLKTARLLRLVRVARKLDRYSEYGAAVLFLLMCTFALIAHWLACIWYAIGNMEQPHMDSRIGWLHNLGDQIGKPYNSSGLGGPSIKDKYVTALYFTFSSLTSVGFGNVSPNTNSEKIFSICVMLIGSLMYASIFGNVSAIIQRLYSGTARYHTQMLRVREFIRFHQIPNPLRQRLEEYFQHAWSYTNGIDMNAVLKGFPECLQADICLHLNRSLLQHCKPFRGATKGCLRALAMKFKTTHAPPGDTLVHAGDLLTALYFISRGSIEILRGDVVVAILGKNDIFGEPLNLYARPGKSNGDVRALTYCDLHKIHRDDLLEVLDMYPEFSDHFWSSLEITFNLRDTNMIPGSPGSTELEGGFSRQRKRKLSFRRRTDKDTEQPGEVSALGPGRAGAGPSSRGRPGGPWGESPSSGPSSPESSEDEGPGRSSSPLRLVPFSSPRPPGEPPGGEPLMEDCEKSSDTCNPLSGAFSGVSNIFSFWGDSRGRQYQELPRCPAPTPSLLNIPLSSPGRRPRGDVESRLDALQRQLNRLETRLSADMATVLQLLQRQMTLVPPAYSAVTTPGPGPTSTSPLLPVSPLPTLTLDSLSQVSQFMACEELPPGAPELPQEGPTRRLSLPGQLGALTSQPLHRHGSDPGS
structure (smiles),measurement,setting,value
Cc1ccc(-c2cc(C(=O)O)c3cc(Br)ccc3n2)s1,IC50,[1],> 1.11 µM (active)
CCc1cc2cc(C(=O)N3CCN(Cc4ccccc4)CC3)sc2s1,IC50,[2],> 80 µM (inactive)
[O-]/[N+](=N/c1ccccc1)c1ccccc1,AC50,[3],50.1 µM (inconclusive)
same,AC50,[4],56.2 µM (inconclusive)
CCCCCCC=C1CCC(CN2CCCC2)C1=O (stereo not drawn),IC50,[5],2.25 µM (active)
COc1ccc(-c2nc3cnccn3c2NC2CCCCC2)cc1-c1cccc(Cl)c1,AC50,[6],4.23 µM (active)
same,IC50,[7],25.4 µM (inactive)
same,IC50,[8],6.78 µM (active)
same,AC50,[9],39.2 µM (active)
COc1ccc(NC(=O)c2sc(=O)n(Cc3ccc(F)c(Cl)c3)c2C)cc1OC,IC50,[10],8.01 µM (active)
COc1ccc(C(C(=O)Nc2ccc3c(c2)OCCO3)n2c(=O)c(-c3ccco3)nc3ccccc32)cc1 (stereo not drawn),IC50,[5],12.5 µM (inactive)
CCOc1cccc(/C=C2\NC(=S)N(c3ccccc3)C2=O)c1O,IC50,[11],80 µM (inactive)
same,IC50,[12],20 µM (inactive)
